Data as given in patent publication EP0118571A1, “Inhibitor of aldose reductase” (Kaken Pharmaceutical Co., Ltd., priority 1983, dated 1984).
Like-named read-outs stand apart in the source and are kept apart here.

Tests used:
rat lens AR (RLAR) = biological target: T1, rat lens AR (RLAR) (Rattus norvegicus, UniProt P07943); assay: Aldose reductase (AR) activity assay, rat lens AR (NADPH oxidation, DL-glyceraldehyde substrate); type: biochemical; details: for inhibition at 10 µM: inhibitor 10^-5M, read-out: Inhibition against enzyme activity (%) RLAR 10^-5M; for inhibition at 10 µM / inhibition at 1 µM / inhibition at 0.1 µM: 30°C, pH 6.2, 1 % propylene glycol; for inhibition at 1 µM: inhibitor 10^-6M, read-out: Inhibition against enzyme activity (%) RLAR 10^-6M; for inhibition at 0.1 µM: inhibitor 10^-7M, read-out: Inhibition against enzyme activity (%) RLAR 10^-7M
T1 construct: BLAR and RLAR were purified according to the method of Inagaki et al; from tissue; host or cells: rat (Wistar) lens
Experimental: (§1) The inhibitory activitiy against AR of LARI was determined according to the following method. As reference examples, there were employed quercitrin and two flavone derivatives having a relatively similar structure to that of LARI, i.e. 6,4'-dihydroxy-5,7,8,3'-tetramethoxyflavone and 5,4'-dihydroxy-6,7,8,3'-tetramethoxyflavone (hereinafter referred to as "Ref-1" and "Ref-2", respectively).
(§2) Rat lenses were removed from eyes of rats of the Wistar strain weighing 200 to 250 g. Bovine eyes were obtained from a local abattoir, and the lenses were removed and frozen until needed.
(§3) All compounds to be subjected to examination were dissolved in propylene glycol being a useful solvent of low toxicity for some water-insoluble drugs. A 10^-3M solution was prepared and diluted to the desired concentration with propylene glycol. To the reaction mixture were added aliquots of the diluted solution to yield concentrations of 10^-8M to 10^-5M and a propylene glycol concentration of 1 %.
(§4) AR assays were conducted according to the procedure of Hayman and Kinoshita (J. Biol. Chem. 240, p. 877 (1965)), except for the addition of ammonium sulfate instead of lithium sulfate to the reaction mixture. Assays were performed at 30°C. in 0.1 M sodium phosphate buffer (pH 6.2) containing 0.4 M ammonium sulfate, 10 mM DL-glyceraldehyde and 0.16 mM NADPH and the enzyme (0.010 to 0.016 unit) in a total volume of 1.0 ml. The effects of inhibitors on the enzyme activity were determined in the reaction mixture containing 10 µl. of each inhibitor solution at the desired concentration. The blank reference to correct for non-specific reduction of NADPH contained all of the above compounds except the above DL-glyceraldehyde. The reaction was initiated by the addition of the above DL-glyceraldehyde, and the rate of NADPH oxidation was followed by recording the decrease in absorbance at 340 nm. on a Gilford model 250 spectrophotometer.
(§5) BLAR and RLAR were purified according to the method of Inagaki et al (Archs. Biochem. Biophys. 216, p. 337 (1982)). Briefly, a 40 to 75 % ammonium sulfate fraction was subjected to chromatography on DEAE-Sephacel, followed by two column chromatographic steps, i.e. affinity chromatography using Matrex gel red A and gel filtration on Sephadex G-75.
(§6) The concentration of inhibitor needed to elicit a 50 % inhibition (IC50) was determined according to the method of Kador et al (Docum. Ophthal. Proc. Series 18, p. 117 (1979)).

bovine lens AR (BLAR) = biological target: T2, bovine lens AR (BLAR) (Bos taurus, UniProt P16116); assay: Aldose reductase (AR) activity assay, bovine lens AR (NADPH oxidation, DL-glyceraldehyde substrate); type: biochemical; details: for inhibition at 10 µM: inhibitor 10^-5M, read-out: Inhibition against enzyme activity (%) BLAR 10^-5M; for inhibition at 10 µM / inhibition at 1 µM / inhibition at 0.1 µM: 30°C, pH 6.2, 1 % propylene glycol; for inhibition at 1 µM: inhibitor 10^-6M, read-out: Inhibition against enzyme activity (%) BLAR 10^-6M; for inhibition at 0.1 µM: inhibitor 10^-7M, read-out: Inhibition against enzyme activity (%) BLAR 10^-7M
T2 construct: BLAR and RLAR were purified according to the method of Inagaki et al; from tissue; host or cells: bovine lens
Experimental: as §1, §2, §3, §4, §5, §6

[1] = purified RLAR, Table 2, read-out: IC50 (M) X 10^6 RLAR
[2] = read-out: IC50 (concentration of inhibitor needed to elicit 50 % inhibition) RLAR
[3] = read-out: IC50 (concentration of inhibitor needed to elicit 50 % inhibition) BLAR

COc1c(OC)c(OC)c2c(=O)cc(-c3ccc(O)c(O)c3)oc2c1OC [LARI, 3',4'-dihydroxy-5,6,7,8-tetramethoxyflavone]
inhibition at 10 µM (rat lens AR (RLAR)): 97%
inhibition at 1 µM (rat lens AR (RLAR)): 93%
inhibition at 0.1 µM (rat lens AR (RLAR)): 78%
IC50 (rat lens AR (RLAR); [1]): 3e-08 M
IC50 (rat lens AR (RLAR); [2]): 3.6e-08 M
inhibitory activity against AR, times as potent as that of quercitrin (rat lens AR (RLAR); relative to quercitrin, AR in general (RLAR and BLAR not distinguished)): about 17 times
inhibition at 10 µM (bovine lens AR (BLAR)): 100%
inhibition at 1 µM (bovine lens AR (BLAR)): 90%
inhibition at 0.1 µM (bovine lens AR (BLAR)): 37%
IC50 (bovine lens AR (BLAR); [3]): 1.8e-07 M

COc1cc(-c2cc(=O)c3c(OC)c(O)c(OC)c(OC)c3o2)ccc1O [Ref-1, 6,4'-dihydroxy-5,7,8,3'-tetramethoxyflavone]
inhibition at 10 µM (rat lens AR (RLAR)): 58%
inhibition at 1 µM (rat lens AR (RLAR)): 22%
inhibition at 0.1 µM (rat lens AR (RLAR)): 6%
inhibition at 10 µM (bovine lens AR (BLAR)): 63%
inhibition at 1 µM (bovine lens AR (BLAR)): 19%
inhibition at 0.1 µM (bovine lens AR (BLAR)): 0%

COc1cc(-c2cc(=O)c3c(O)c(OC)c(OC)c(OC)c3o2)ccc1O [Ref-2, 5,4'-dihydroxy-6,7,8,3'-tetramethoxyflavone]
inhibition at 10 µM (rat lens AR (RLAR)): 40%
inhibition at 1 µM (rat lens AR (RLAR)): 15%
inhibition at 0.1 µM (rat lens AR (RLAR)): 0%
inhibition at 10 µM (bovine lens AR (BLAR)): 56%
inhibition at 1 µM (bovine lens AR (BLAR)): 19%
inhibition at 0.1 µM (bovine lens AR (BLAR)): 0%

C[C@@H]1O[C@@H](Oc2c(-c3ccc(O)c(O)c3)oc3cc(O)cc(O)c3c2=O)[C@H](O)[C@H](O)[C@H]1O [quercitrin]
inhibition at 10 µM (rat lens AR (RLAR)): 84%
inhibition at 1 µM (rat lens AR (RLAR)): 56%
inhibition at 0.1 µM (rat lens AR (RLAR)): 38%
IC50 (rat lens AR (RLAR); [1]): 4.9e-07 M
IC50 (rat lens AR (RLAR); [2]): 4.9e-07 M
inhibition at 10 µM (bovine lens AR (BLAR)): 66%
inhibition at 1 µM (bovine lens AR (BLAR)): 32%
inhibition at 0.1 µM (bovine lens AR (BLAR)): 0%
IC50 (bovine lens AR (BLAR); purified BLAR, Table 2, read-out: IC50 (M) X 10^6 BLAR): 3.3e-06 M
IC50 (bovine lens AR (BLAR); [3]): 3.3e-06 M
